The text below walks through data of publication PMC8232621, “Antimicrobial Activity of a Library of Thioxanthones and Their Potential as Efflux Pump Inhibitors” (Pharmaceuticals, 2021).

The structures appear in SMILES notation. Where “and” joins values, the source holds several entries; their conditions need not be identical. Equal entries are not always repeated.

One test relates to the used strains. In words: Antibacterial activity (MIC), strains not specified. It counts as cell-based. The note with it: concentrations tested; results not shown. As for the experimental part: The minimum inhibitory concentration (MIC) for each compound was determined by broth microdilution method in a 96-well plate according to the Clinical and Laboratory Standard Institute (CLSI) guidelines. The medium used was MHB II. […] DMSO was used in subinhibitory concentrations (1% v/v). The MIC was determined by visual inspection.

In another test the test system is E. faecalis B3/101. In words: Synergy with vancomycin (antibiotic MIC in presence of compound). It counts as cell-based, Enterococcus faecalis. An excerpt: The referred library of thioxanthones was initially tested for their antimicrobial activity against six bacterial strains: the Gram-negative Escherichia coli ATCC 25922, Pseudomonas aeruginosa ATCC 27853 and Salmonella enterica serovar Typhimurium SL1344 (SE03), with the acrA gene deleted, and the Gram-positive Staphylococcus aureus ATCC 29213, Enterococcus faecalis ATCC 29212 and the methicillin and ofloxacin-resistant clinical isolate S. aureus 272123. For the synergy assay, two clinically relevant isolates were used: the extended-spectrum β-lactamase (ESBL)-producing E. coli SA/2 [23] and the vancomycin-resistant E. faecalis (VRE) B3/101 [23]. The antibiotics used were cefotaxime (CTX) and vancomycin (VAN), respectively.
The combined effect of the compounds and clinically relevant antimicrobial drugs was evaluated by determining the antibiotic’s MIC in the presence of each compound. […] The antibiotic tested was serially diluted, whereas the concentration of each compound was kept fixed. In the case of compound 12, the concentration used was 8 µg/mL. For all other compounds, the concentration used was 64 µg/mL. Antibiotic MICs were determined as described above.

As to `NS(=O)(=O)c1ccc(C(=O)O)cc1` [4-sulfamoylbenzoic acid], in the test with the used strains, the MIC result is given as “did not display an observable MIC”.
For the compound `CN[C@H](CC(C)C)C(=O)N[C@H]1C(=O)N[C@@H](CC(N)=O)C(=O)N[C@H]2C(=O)N[C@H]3C(=O)N[C@H](C(=O)N[C@H](C(=O)O)c4cc(O)cc(O)c4-c4cc3ccc4O)[C@H](O)c3ccc(c(Cl)c3)Oc3cc2cc(c3O[C@@H]2O[C@H](CO)[C@@H](O)[C@H](O)[C@H]2O[C@H]2C[C@](C)(N)[C@H](O)[C@H](C)O2)Oc2ccc(cc2Cl)[C@H]1O` [VAN, vancomycin], the “VAN MIC (antibiotic alone)” value in the test with E. faecalis B3/101 was 707 µM and 1024 µg/mL.
